Earlier results, collected in US20060057204A1, “Pharmaceutical compositions containing venlafaxine” (priority 2002, published 2006).
Counter-ions that a name gives are not always drawn.

Conditions: plural daily dosing regimen

nausea, patients under treatment: about forty five percent | vomiting, patients: about seventeen percent
Compound: COc1ccc(C(CN(C)C)C2(O)CCCCC2)cc1 (centres unmarked) [venlafaxine hydrochloride, 1-[(2-dimethylamino)-1-(4-methoxyphenyl)ethyl] cyclohexanol]
